The target in assay [1] is T1, human V2 receptor (Homo sapiens, UniProt P30518). The assay is described as follows: Study to confirm the agonism of human V2 receptor (intracellular Ca2+, HEK293 cells coexpressing human V2 receptor and Gqs chimeric protein). In kind it is cell-based. On the set-up: expressed in transfected cells; host or cells: HEK293 cells (American Type Culture Collection), transient transfection with pCI-neo/hV2 and pLEC-Gqs5. The note with it: for EC50: intracellular Ca2+, HEK293 cells coexpressing human V2 receptor and Gqs; for IA (intrinsic activity): maximum response relative to AVP = 1. How it is done: The Study to Confirm the Agonism of Human V2 Receptor
The experiment to confirm the response of the test compounds to human V2 receptor was carried out using the cells prepared as described below in order to use this confirmation study to see the agonism of human V2 receptor of the test compounds.
The test compounds were dissolved in dimethylsulfoxide at 10 mM and solutions of the test compounds were prepared by 10-fold serial dilution with the Assay buffer (0.1% BSA, 20 mM HEPES/Hank's balanced salt solution, pH 7.4) at the concentration of 0.1 nM to 10 μM, which were used in this study.
Human V2 receptor couples with Gs protein, one of the G-coupling protein, and consequently produces cyclic adenosine 3′, 5′-monophosphate (cAMP) via adenylate cyclase. This cAMP produce can be substituted to intracellular increase of Ca^2+ with coexpressing Gqs, a chimeric protein, and human V2 receptor (Mol. Pharmacol., Vol. 50, pp. 885-890, 1996). The responses of the test compounds for human V2 receptor were quantified by measuring this intracellular Ca^2+. The changes of intracellular Ca^2+ after adding the test compounds at each concentration as mentioned above (0.1 nM to 10 μM) were measured with a FlexStation (Molecular Devices) using a FLIPR CALCIUM ASSAY KIT (Molecular Devices).
The intrinsic activities (IA) of the test compounds were calculated from the maximum response of the test compounds as that of AVP was considered to be 1. In case of a full agonist, the EC50 values of the test compounds were calculated as the maximum response of AVP was considered to be 100% and in the case of a partial agonist, EC50 values of test compounds were calculated as the maximum response of own test compounds were considered to be 100%. The concentration that achieved to 50% response of the maximum response in a concentration-response curve was considered as EC50 value. The values of EC50 obtained in this study were shown in Table 68 described below as indications of the agonism of human V2 receptor.
The Preparation of the Cells Using Confirmation Study of an Agonism of Human V2, Receptor (HEK293 Cells Coexpressed Human V2 Receptor and Gqs Chimeric Protein)
HEK293 cells (American Type Culture Collection) were incubated in the Eagle's Minimum Essential Medium (EMEM, Invitrogen) containing 1 mM sodium pyruvate, nonessential amino acids (0.1 mM), streptomycin (100 μg/mL), penicillin (100 U/mL), 10% fetal calf serum (Sanko chemicals) in an incubator with 5% CO2 at 37° C. The transfection was carried out by adding pCI-neo hV2 expression vector, expression vector inserted with the sequence coding Gqs chimeric protein (pLEC-Gqs5, LiveWare, Molecular Devices) and Lipofectamine2000 (Invitrogen), all diluted with OPTI-MEM I Reduced Serum Medium I (Invitrogen), to the cell suspension which was prepared from the confluent cells suspended with EMEM as mentioned above without antibiotics at 1×10^6 cells/mL. After the transfection, the cells (HEK293 cells coexpressed human V2 receptor and Gqs chimeric protein) were incubated in an incubator with 5% CO2 for two days and were used as cells for confirming agonism of human V2 receptor, and used for assessment of the test compounds. The expression plasmid vector of human V2 receptor represented as pCI-neo/hV2 above was constructed by the method as described below.
The Method of Construction of Human V2 Receptor Expression Plasmid Vector
cDNA library was obtained from reverse transcription of human kidney total RNA using SuperScript II RNase H-reverse transcriptase (Invitrogen) and oligo dT. The DNA fragment encoding human V2 receptor was amplified by the PCR method using the cDNA library as a template, primers used in combination of each forward primer (sequence no. 1-3 shown below) and each reverse primer (sequence no. 4-6 shown below) respectively and pfu DNA polymerase (Stratagene). This amplified DNA fragment and pCR-blunt kit (Invitrogen), a cloning plasmid vector, were ligated by a general method of the kit. […]

Assay [2] addresses T1, human V2 receptor. The assay is described as follows: Binding experiment for human V2 receptor ([3H]-AVP displacement, CHO cell membranes). Further details: purchased Packard BioScience; host or cells: CHO cells (membranes). As to conditions: [3H]-AVP binding, CHO cell membranes expressing human V2 receptor; Ki calculated from IC50 and Kd. As for the experimental part:
Binding Experiment for Human V2 Receptor
Test compounds were dissolved in dimethylsulfoxide at 10 mM. The affinities for human V2 receptor were determined by an inhibition against [^3H]-Arginie vasopressin (AVP) (Perkin elmer Japan) binding to the human V2 receptor using CHO cell membranes expressed human V2 receptor (Packard BioScience). Cell membranes suspension was prepared by suspending the cell membranes as mentioned above with Assay buffer (50 mM Tris-HCl, 10 mM MgCl2, 0.1% bovine serum albumin (BSA), pH7.4) at an adequate protein concentration. The test compound solutions were prepared by diluting the dimethylsulfoxide solution of the test compound as mentioned above with Assay buffer at final concentration of 10 nM, 100 nM, 1 μM and 10 μM (in this diluting procedure, concentration of dimethylsulfoxide was adjusted to be 0.5% at each concentration of the test compound). Cell membranes suspension (50 μL), 3 nM of [^3H]-AVP (50 μL), Assay buffer (50 μL) and the solution of the test compounds at each concentrations (50 μL) were added to MultiScreen 96-well plate (Millipore) and the mixture was incubated for an hour at 25° C. with shaking slightly. After filtration by aspiration, the plate was washed with ice-cold washing buffer (50 mM Tris-HCl, 10 mM MgCl2, pH 7.4) for three times. After dry the plate, Microscinti-20 (Packard) was added to each well and the plate was shaken slightly, and then radioactivities of each well were counted with a micro plate scintillation counter, TopCount (Packard). Non-specific binding of [^3H]-AVP for cell membranes was determined by adding 1 μM of cold AVP substituted for the test compounds. The concentration of the test compounds inhibiting the specific binding of [^3H]-AVP by 50% was considered as IC50 value.
The Calculation of Kd Value of [^3H]-AVP for the Cell Membranes Expressed Human V2 Receptor
The suspension of the cell membranes expressed human V2 receptor was prepared with diluting adequately with the Assay buffer as mentioned above. In consideration for the radioactivity of [^3H]-AVP, six different concentrations (final concentration; ranging from approximately 100 pM to 6000 pM) of [^3H]-AVP were prepared by serial dilution by from 2 to 3 fold with the Assay buffer. The cell membranes suspension (50 μL), each concentrations of [^3H]-AVP (50 μL), the Assay buffer (50 μL) and 1 μM of cold AVP or the Assay buffer were added to MultiScreen 96-well plate (Millipore) and the mixture was incubated for an hour at 25° C. with shaking slightly. The specific bindings (Bvalue) of each concentrations of the [^3H]-AVP were determined by the method as mentioned above and free-bound contents (F value) at each concentrations of the [^3H]-AVP were determined. The Kd value was calculated by Scatchard analysis using the B value and the F value.

T1 sequence (P30518 whole entry): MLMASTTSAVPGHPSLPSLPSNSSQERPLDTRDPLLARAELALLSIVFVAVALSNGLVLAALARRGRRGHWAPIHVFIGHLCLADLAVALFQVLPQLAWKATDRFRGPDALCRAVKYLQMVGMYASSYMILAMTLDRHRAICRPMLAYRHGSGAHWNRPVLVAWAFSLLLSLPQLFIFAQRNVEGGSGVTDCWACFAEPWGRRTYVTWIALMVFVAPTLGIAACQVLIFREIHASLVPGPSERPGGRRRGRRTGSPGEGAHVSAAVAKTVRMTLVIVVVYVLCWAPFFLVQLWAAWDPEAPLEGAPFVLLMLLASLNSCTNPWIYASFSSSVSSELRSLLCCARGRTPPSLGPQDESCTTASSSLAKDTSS

For `Cc1nnc(CN2Cc3ccccc3N(C(=O)c3ccc(-n4cccn4)nc3)CC2=O)o1` [Example 1-29, 4-(5-methyl-1,3,4-oxadiazol-2-yl-methyl)-1-[6-(pyrazol-1-yl)py-ridine-3-carbonyl]-1,2,4,5-tetra-hydrobenzo[e]-1,4-di-azepin-3-one], in assay [1], the EC50 (commonly the midpoint of the concentration-response curve) was 50 nM and the “IA (intrinsic activity)” value is given as 0.93.
Regarding `O=C(O)CN1Cc2ccccc2N(C(=O)c2ccc(OCC(F)(F)F)cc2Cl)CC1=O` [Example 2-5, 1-[2-chloro-4-(2,2,2-trifluoroethoxy)-benzoyl]-3-oxo-1,2,3,5-tetrahydrobenzo[e]-1,4-diazepin-4-yl acetic acid], in assay [2], the Ki (commonly a dissociation constant, usually derived from enzyme kinetics or from competition with a known ligand) is 197 nM. Moreover, in assay [1], the EC50 came out at 10 nM.
For `Cc1cnc(CN2Cc3ccccc3N(C(=O)c3ccc(OCCO)cc3Cl)CC2=O)o1` [Example 2-21, 1-[2-chloro-4-(2-hydroxyethoxy)benzoyl]-4-(5-methyloxazole-2-ylmethyl)-1,2,4,5-tetrahydrobenzo[e]-1,4-diazepin-3-one], the Ki in assay [2] was 322 nM. In assay [1], the EC50 came out at 6 nM and the “IA (intrinsic activity)” value worked out at 1.09.
For the compound `O=C1CN(C(=O)c2ccc(N3CCCC3)cc2Cl)c2ccccc2CN1Cc1nnn[nH]1` [Example 15, 1-(2-Chloro-4-pyrrolidin-1-ylbenzoyl)-4-(1H-tetrazol-5-ylmethyl)-1,2,4,5-tetrahydrobenzo[e]-1,4-diazepin-3-one], the Ki in assay [2] is 97.7 nM. Further, in assay [1], the EC50 was found to be 1 nM and the “IA (intrinsic activity)” value turned out to be 1.09.
As to `Cc1nnc(CN2Cc3ccccc3N(C(=O)c3ccc(OCCCO)nc3C)CC2=O)o1` [Example 31-8, 1-[6-(3-hydroxypropoxy)-2-methylpyridine-3-carbonyl]-4-(5-methyl-1,3,4-oxadiazol-2-ylmethyl)-1,2,4,5-tetrahydrobenzo[e]-1,4-diazepin-3-one], in assay [1], the EC50 stood at 44 nM and the “IA (intrinsic activity)” value is given as 1.18.
As for `O=C(O)CN1Cc2ccccc2N(C(=O)c2ccc(-c3ccccc3)cc2)CC1=O` [Example 31-11, 1-(biphenyl-4-carbonyl)-3-oxo-1,2,3,5-tetrahydrobenzo[e]-1,4-diazepin-4-ylacetic acid], the Ki in assay [2] was 103 nM. Besides, in assay [1], the EC50 came to 39 nM and the “IA (intrinsic activity)” value is 0.35.
